Experiment: collision cross section in nitrogen (drift tube, single-field); higher = larger gas-phase ion size
[1] = ion type: [M+Na], ion source: ESI, ion mode: Positive
[2] = ion type: [M+H], ion source: APCI, ion mode: Positive
[3] = ion type: [M+H], ion source: ESI, ion mode: Positive
[4] = ion type: [M-H], ion source: ESI, ion mode: Negative
[5] = ion type: [M+], ion source: APCI, ion mode: Positive
[6] = ion source: APCI, ion mode: Positive, ion type: [M]+ (permanent cation)
[7] = ion source: ESI, ion mode: Positive, ion type: [M]+ (permanent cation)
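Further: chemical standards at 10 µM analysed by drift tube IMS-QTOF MS in about 3.95 torr nitrogen, mean of duplicate injections differing ≤1%, mass error below 10 ppm.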

## CNC(=O)Oc1cccc2c1OC(C)(C)C2 [Carbofuran]
[1]
  collision cross section in nitrogen: 157.8 Å²

## COc1cc(C(C)C)c2c(c1)S(=O)(=O)N(COc1cc(=O)n3cccc(OCCN4CCCCC4)c3n1)C2=O
[2]
  collision cross section in nitrogen: 228 Å²
[3]
  collision cross section in nitrogen: 226.9 Å²
[1]
  collision cross section in nitrogen: 230.1 Å²

## CCS(=O)(=O)CCSP(=O)(OC)OC [Demeton-S-methyl sulfone]
[2]
  collision cross section in nitrogen: 144.5 Å²
[3]
  collision cross section in nitrogen: 145 Å²
[1]
  collision cross section in nitrogen: 155.1 Å²

## O=C(NO)c1ccccc1O [Salicylhydroxamic acid]
[4]
  collision cross section in nitrogen: 124.5 Å²

## CC(C)(c1ccccc1)c1ccc(Nc2ccc(C(C)(C)c3ccccc3)cc2)cc1
[2]
  collision cross section in nitrogen: 220.2 Å²
[3]
  collision cross section in nitrogen: 220.3 Å²
[5]
  collision cross section in nitrogen: 218.2 Å²
[4]
  collision cross section in nitrogen: 222.7 Å²

## CCCSc1ccc2[nH]c(NC(=O)OC)nc2c1 [Albendazole]
[2]
  collision cross section in nitrogen: 166.9 Å²
[3]
  collision cross section in nitrogen: 166 Å²
[5]
  collision cross section in nitrogen: 160.4 Å²

## CCN(CCO)c1cccc(C)c1 [2-(N-Ethyl-m-toluidino)ethanol]
[2]
  collision cross section in nitrogen: 140 Å²
[3]
  collision cross section in nitrogen: 140.6 Å²

## CCCCC(CC)COP(=O)(O)OCC(CC)CCCC (stereo unspecified) [Bis(2-ethylhexyl) phosphate]
[1]
  collision cross section in nitrogen: 201 Å²
[4]
  collision cross section in nitrogen: 187 Å²

## CCOc1nc(F)cc2nc(S(=O)(=O)Nc3c(Cl)cccc3Cl)nn12 [Diclosulam]
[2]
  collision cross section in nitrogen: 184.6 Å²
[3]
  collision cross section in nitrogen: 183.5 Å²
[1]
  collision cross section in nitrogen: 194 Å²
[4]
  collision cross section in nitrogen: 183 Å²

## Cc1ccc2c(c1)CCCN2 [6-Methyl-1,2,3,4-tetrahydroquinoline]
[2]
  collision cross section in nitrogen: 134.5 Å²
[3]
  collision cross section in nitrogen: 134.8 Å²

## CC1(C)CCC[C@]2(C)[C@H]3CC(=O)O[C@]3(C)CC[C@@H]12 [(3aR)-(+)-Sclareolide]
[1]
  collision cross section in nitrogen: 181.5 Å²

## O=C1CC(c2ccc(O)cc2)Oc2cc(O)cc(O)c21 (racemic) [(+/-)-Naringenin]
[4]
  collision cross section in nitrogen: 163.9 Å²

## CO/N=C(/C(=O)OC)c1ccccc1CO/N=C(\C)c1cccc(C(F)(F)F)c1 [Trifloxystrobin]
[2]
  collision cross section in nitrogen: 187.4 Å²
[3]
  collision cross section in nitrogen: 187.2 Å²
[1]
  collision cross section in nitrogen: 193 Å²

## COc1ccc(C(=O)c2ccccc2)c(O)c1 [2-Hydroxy-4-methoxybenzophenone]
[2]
  collision cross section in nitrogen: 147.3 Å²
[4]
  collision cross section in nitrogen: 152.9 Å²

## CCCCNS(=O)(=O)c1ccccc1 [N-Butylbenzenesulfonamide]
[4]
  collision cross section in nitrogen: 148.3 Å²

## O=c1[nH]c2ccc(S(=O)CCN3CCC(Cc4ccc(F)cc4)CC3)cc2o1 (stereo unspecified) [Besonprodil]
[2]
  collision cross section in nitrogen: 203.6 Å²
[3]
  collision cross section in nitrogen: 203.4 Å²
[1]
  collision cross section in nitrogen: 202 Å²
[4]
  collision cross section in nitrogen: 188.5 Å²

## N[C@H](Cc1c[nH]c2ccccc12)C(=O)O [d-Tryptophan]
[4]
  collision cross section in nitrogen: 151.5 Å²

## COCc1cnc(C2=NC(C)(C(C)C)C(=O)N2)c(C(=O)O)c1 (stereo unspecified) [Imazamox]
[2]
  collision cross section in nitrogen: 172.2 Å²
[3]
  collision cross section in nitrogen: 172.4 Å²
[1]
  collision cross section in nitrogen: 188.9 Å²
[4]
  collision cross section in nitrogen: 178.2 Å²

## CCN(CC)c1ccc(C=O)cc1 [4-(Diethylamino)benzaldehyde]
[2]
  collision cross section in nitrogen: 139.4 Å²
[3]
  collision cross section in nitrogen: 140.3 Å²

## C[C@]12C[C@H](O)[C@H]3[C@@H](CCC4=CC(=O)CC[C@@]43C)[C@@H]1CC[C@@H]2C(=O)CO [Corticosterone]
[1]
  collision cross section in nitrogen: 212.4 Å²

## CC(C)c1cccc(C(C)C)c1N=C=Nc1c(C(C)C)cccc1C(C)C [Bis(2,6-diisopropylphenyl)carbodiimide]
[2]
  collision cross section in nitrogen: 189.6 Å²
[3]
  collision cross section in nitrogen: 190.5 Å²

## O=C(O)c1cccc([N+](=O)[O-])c1 [3-Nitrobenzoic acid]
[4]
  collision cross section in nitrogen: 131.2 Å²

## COc1ccc(N)cc1 [p-Anisidinium chloride]
[3]
  collision cross section in nitrogen: 133.2 Å²

## CCC(CC)Nc1c([N+](=O)[O-])cc(C)c(C)c1[N+](=O)[O-] [Pendimethalin]
[4]
  collision cross section in nitrogen: 163.7 Å²

## CCCOCCOCCOCCO [2-[2-(2-Propoxyethoxy)ethoxy]ethanol]
[1]
  collision cross section in nitrogen: 144.4 Å²

## CCc1cccc(C)c1N(C(=O)C(=O)O)C(C)COC (stereo unspecified) [Metolachlor OA]
[4]
  collision cross section in nitrogen: 165.9 Å²

## CC1(C)[C@H](/C=C2\CCSC2=O)[C@@H]1C(=O)OCc1coc(Cc2ccccc2)c1 [Kadethrin]
[1]
  collision cross section in nitrogen: 192.5 Å²

## Nc1ccc(N)c2c1C(=O)c1ccccc1C2=O [1,4-Diaminoanthraquinone]
[2]
  collision cross section in nitrogen: 151.4 Å²
[3]
  collision cross section in nitrogen: 151.5 Å²
[5]
  collision cross section in nitrogen: 147.5 Å²
[4]
  collision cross section in nitrogen: 149.1 Å²

## CCCCC(CC)COC(=O)CCCCC(=O)OCc1ccccc1 (stereo unspecified) [Benzyloctyl adipate]
[1]
  collision cross section in nitrogen: 191.9 Å²

## CCCCn1cc[n+](C)c1 [1-Butyl-3-methylimidazolium chloride]
[6]
  collision cross section in nitrogen: 129 Å²
[7]
  collision cross section in nitrogen: 128.9 Å²

## CO[C@@H]1COCC[C@@H]1N[C@@H]1CC[C@@](C(=O)N2CCc3ncc(C(F)(F)F)cc3C2)(C(C)C)C1 [MK-812]
[3]
  collision cross section in nitrogen: 214.6 Å²
[1]
  collision cross section in nitrogen: 219.6 Å²
[4]
  collision cross section in nitrogen: 207.8 Å²

## NC(=O)c1cccnc1 [Niacinamide]
[2]
  collision cross section in nitrogen: 125.7 Å²

## CCN(CCC#N)c1cccc(C)c1 [3-(Ethyl(3-methylphenyl)amino)propanenitrile]
[2]
  collision cross section in nitrogen: 144.7 Å²
[3]
  collision cross section in nitrogen: 144.3 Å²
[5]
  collision cross section in nitrogen: 143.6 Å²

## CCCC(CCC)C(=O)O [Valproic acid]
[4]
  collision cross section in nitrogen: 137.1 Å²

## CN(C[C@@H](CC[N+]12CCC(C3CCCCC3)(CC1)CC2)c1ccc(Cl)c(Cl)c1)C(=O)c1cc(C(F)(F)F)cc(C(F)(F)F)c1
[6]
  collision cross section in nitrogen: 260.7 Å²
[7]
  collision cross section in nitrogen: 262.3 Å²

## COc1ccc(N=Nc2cc(C)c(N=Nc3ccc(S(=O)(=O)O)cc3)cc2OC)cc1 [C.I. Acid Orange 156]
[3]
  collision cross section in nitrogen: 219.7 Å²
[4]
  collision cross section in nitrogen: 231.2 Å²

## NNC(=O)c1ccncc1 [Isoniazid]
[4]
  collision cross section in nitrogen: 125.3 Å²

## CC(C)COC(=O)COc1ccc(Cl)cc1Cl [2,4-D-isobutyl]
[1]
  collision cross section in nitrogen: 172.2 Å²

## CCCCCCCCCCCC(=O)OC(C)C [Isopropyl Laurate]
[4]
  collision cross section in nitrogen: 165.3 Å²

## Cc1cn([C@H]2C[C@H](N=[N+]=[N-])[C@@H](CO)O2)c(=O)[nH]c1=O [3'-Azido-3'-deoxythymidine]
[4]
  collision cross section in nitrogen: 159.9 Å²

## Cc1ccc(S(N)(=O)=O)cc1 [4-Toluenesulfonamide]
[4]
  collision cross section in nitrogen: 136.3 Å²

## CCCCCCCCOC(=O)c1ccccc1O [Octyl salicylate]
[4]
  collision cross section in nitrogen: 162.2 Å²

## Cc1ncc([C@@H](CCCCCCc2ccc3c(n2)NCCC3)CC(=O)O)cn1
[2]
  collision cross section in nitrogen: 192.3 Å²
[3]
  collision cross section in nitrogen: 192.4 Å²
[1]
  collision cross section in nitrogen: 199.7 Å²
[4]
  collision cross section in nitrogen: 199.2 Å²

## Cc1ccc(C(C)NC(=O)[C@@H](NC(=O)OC(C)C)C(C)C)cc1 (stereo partly specified) [Iprovalicarb]
[2]
  collision cross section in nitrogen: 184.2 Å²
[1]
  collision cross section in nitrogen: 183.5 Å²

## Cc1ccc2c(c1N)C(=O)c1ccccc1C2=O [1-Amino-2-methylanthraquinone]
[2]
  collision cross section in nitrogen: 153.6 Å²
[3]
  collision cross section in nitrogen: 153.2 Å²
[5]
  collision cross section in nitrogen: 147.6 Å²
[4]
  collision cross section in nitrogen: 150.1 Å²

## CCOP(=S)(OCC)Oc1nc(Cl)n(C(C)C)n1 [Isazofos]
[3]
  collision cross section in nitrogen: 166.9 Å²
[1]
  collision cross section in nitrogen: 174.8 Å²

## CCCCCCCCCCCCCC(=O)OCCCC [Butyl myristate]
[4]
  collision cross section in nitrogen: 177.6 Å²
